From PubChem BioAssay (NCI)
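Tested at 5 concentrations; 48 h exposure; 96-well plates; endpoints linearly interpolated, else capped at highest concentration. At the GI50, growth is halved. Definition used: TGI = concentration required for complete inhibition of growth.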

What was measured:
Test in all cases: growth of human tumour cells (NCI), 48 h
LOX IMVI melanoma = system: LOX IMVI melanoma
NCI/ADR-RES ovarian = system: NCI/ADR-RES ovarian
SF-539 CNS = system: SF-539 CNS
MDA-MB-435 = system: MDA-MB-435
HCT-15 colon = system: HCT-15 colon
K-562 leukemia = system: K-562 leukemia
IGROV1 ovarian = system: IGROV1 ovarian
MDA-MB-231 breast = system: MDA-MB-231 breast
UO-31 renal = system: UO-31 renal
COLO 205 colon = system: COLO 205 colon
TK-10 renal = system: TK-10 renal
HOP-62 NSCLC = system: HOP-62 NSCLC
SNB-75 CNS = system: SNB-75 CNS
UACC-257 melanoma = system: UACC-257 melanoma
SK-MEL-28 melanoma = system: SK-MEL-28 melanoma
DU-145 prostate = system: DU-145 prostate
NCI-H522 lung = system: NCI-H522 lung
HS 578T breast = system: HS 578T breast
SK-MEL-5 melanoma = system: SK-MEL-5 melanoma
CCRF-CEM leukemia = system: CCRF-CEM leukemia
OVCAR-3 ovarian = system: OVCAR-3 ovarian
ACHN renal = system: ACHN renal
SK-MEL-2 melanoma = system: SK-MEL-2 melanoma
OVCAR-4 ovarian = system: OVCAR-4 ovarian
RPMI-8226 leukemia = system: RPMI-8226 leukemia
T-47D breast = system: T-47D breast
MALME-3M melanoma = system: MALME-3M melanoma

C[CH2][Pb]([CH2]C)([CH2]C)[O]C(=O)COc1ccccc1
TGI (LOX IMVI melanoma): 3220 nM
GI50 (NCI/ADR-RES ovarian): 1970 nM
TGI (NCI/ADR-RES ovarian): 9240 nM
GI50 (SF-539 CNS): 1810 nM
TGI (SF-539 CNS): 4630 nM
GI50 (MDA-MB-435): 214 nM
TGI (MDA-MB-435): 502 nM
GI50 (HCT-15 colon): 1980 nM
TGI (HCT-15 colon): 11600 nM
GI50 (K-562 leukemia): 1470 nM
TGI (K-562 leukemia): 6640 nM
GI50 (IGROV1 ovarian): 1640 nM
TGI (IGROV1 ovarian): 6520 nM
GI50 (MDA-MB-231 breast): 1630 nM
TGI (MDA-MB-231 breast): 4840 nM
GI50 (UO-31 renal): 1050 nM
TGI (UO-31 renal): 3700 nM
GI50 (COLO 205 colon): 1960 nM
TGI (COLO 205 colon): 4510 nM
GI50 (TK-10 renal): 1630 nM
TGI (TK-10 renal): 5210 nM
GI50 (HOP-62 NSCLC): 1640 nM
TGI (HOP-62 NSCLC): 3760 nM
GI50 (SNB-75 CNS): 1240 nM
TGI (SNB-75 CNS): 11300 nM
GI50 (UACC-257 melanoma): 557 nM
TGI (UACC-257 melanoma): 4750 nM
GI50 (SK-MEL-28 melanoma): 784 nM
TGI (SK-MEL-28 melanoma): 11000 nM
GI50 (DU-145 prostate): 2430 nM
TGI (DU-145 prostate): 10700 nM
GI50 (NCI-H522 lung): 562 nM
TGI (NCI-H522 lung): 2110 nM
GI50 (HS 578T breast): 1530 nM
TGI (HS 578T breast): 5200 nM
GI50 (SK-MEL-5 melanoma): 1190 nM
TGI (SK-MEL-5 melanoma): 2560 nM
GI50 (CCRF-CEM leukemia): 1230 nM
TGI (CCRF-CEM leukemia): 4860 nM
GI50 (OVCAR-3 ovarian): 1700 nM
TGI (OVCAR-3 ovarian): 5270 nM
GI50 (ACHN renal): 2510 nM
TGI (ACHN renal): 11300 nM
GI50 (SK-MEL-2 melanoma): 382 nM
TGI (SK-MEL-2 melanoma): 1730 nM
GI50 (OVCAR-4 ovarian): 949 nM
TGI (OVCAR-4 ovarian): 4960 nM
GI50 (RPMI-8226 leukemia): 1030 nM
TGI (RPMI-8226 leukemia): 3120 nM
GI50 (T-47D breast): 757 nM
TGI (T-47D breast): 8820 nM
GI50 (MALME-3M melanoma): 441 nM
TGI (MALME-3M melanoma): 7110 nM
